Measurements as given in ChEMBL document CHEMBL4342421, “Current scenario of tetrazole hybrids for antibacterial activity” (Eur J Med Chem, 2019).
In brackets after ≈: the same amount, converted by molar mass.

What was measured:
Format in all cases: functional
Bacillus cereus [1] = assay: Antimicrobial activity against Bacillus cereus
Staphylococcus aureus [2] = assay: Antimicrobial activity against Staphylococcus aureus
Candida albicans [3] = assay: Antifungal activity against Candida albicans
Aspergillus niger [4] = assay: Antifungal activity against Aspergillus niger
Escherichia coli [5] = assay: Antimicrobial activity against Escherichia coli
Aspergillus niger [6] = assay: Antifungal activity against Aspergillus niger assessed as zone of inhibition at 250 ug/ml; conditions: read-out: IZ
Bacillus cereus [7] = assay: Antimicrobial activity against Bacillus cereus assessed as zone of inhibition at 250 ug/ml; conditions: read-out: IZ
Staphylococcus aureus [8] = assay: Antimicrobial activity against Staphylococcus aureus assessed as zone of inhibition at 250 ug/ml; conditions: read-out: IZ
Pseudomonas aeruginosa [9] = assay: Antimicrobial activity against Pseudomonas aeruginosa assessed as zone of inhibition at 250 ug/ml; conditions: read-out: IZ
Escherichia coli [10] = assay: Antimicrobial activity against Escherichia coli assessed as zone of inhibition at 250 ug/ml; conditions: read-out: IZ
Pseudomonas aeruginosa [11] = assay: Antimicrobial activity against Pseudomonas aeruginosa
Candida albicans [12] = assay: Antifungal activity against Candida albicans assessed as zone of inhibition at 250 ug/ml; conditions: read-out: IZ
Aspergillus fumigatus = assay: Antifungal activity against Aspergillus fumigatus assessed as zone of inhibition at 50 ug/ml; conditions: read-out: IZ
Staphylococcus aureus [13] = assay: Antimicrobial activity against Staphylococcus aureus assessed as zone of inhibition at 50 ug/ml; conditions: read-out: IZ
Escherichia coli [14] = assay: Antimicrobial activity against Escherichia coli assessed as zone of inhibition at 50 ug/ml; conditions: read-out: IZ
Candida albicans [15] = assay: Antifungal activity against Candida albicans assessed as zone of inhibition at 50 ug/ml; conditions: read-out: IZ
Pseudomonas aeruginosa [16] = assay: Antimicrobial activity against Pseudomonas aeruginosa assessed as zone of inhibition at 50 ug/ml; conditions: read-out: IZ
Bacillus subtilis = assay: Antimicrobial activity against Bacillus subtilis assessed as zone of inhibition at 50 ug/ml; conditions: read-out: IZ
Aspergillus niger [17] = assay: Antifungal activity against Aspergillus niger assessed as zone of inhibition at 50 ug/ml; conditions: read-out: IZ

SMILES | zone of inhibition at 50 µg/mL (Aspergillus fumigatus) | zone of inhibition at 50 µg/mL (Staphylococcus aureus [13]) | zone of inhibition at 50 µg/mL (Escherichia coli [14]) | zone of inhibition at 50 µg/mL (Candida albicans [15]) | zone of inhibition at 50 µg/mL (Pseudomonas aeruginosa [16]) | zone of inhibition at 50 µg/mL (Bacillus subtilis) | further results
CN(C)c1ccc(-c2nnnn2-c2nc3ccccc3s2)cc1 |  |  |  |  |  |  | MIC (Bacillus cereus [1]): 50 to 100 µg/mL (≈ 155 to 310 µM); MIC (Staphylococcus aureus [2]): 50 to 100 µg/mL (≈ 155 to 310 µM); MIC (Candida albicans [3]): 50 to 100 µg/mL (≈ 155 to 310 µM); MIC (Aspergillus niger [4]): 50 to 100 µg/mL (≈ 155 to 310 µM); MIC (Escherichia coli [5]): 50 to 100 µg/mL (≈ 155 to 310 µM); zone of inhibition at 250 µg/mL (Aspergillus niger [6]): 16 to 26 mm; zone of inhibition at 250 µg/mL (Bacillus cereus [7]): 16 to 26 mm; zone of inhibition at 250 µg/mL (Staphylococcus aureus [8]): 16 to 26 mm; zone of inhibition at 250 µg/mL (Pseudomonas aeruginosa [9]): 16 to 26 mm; zone of inhibition at 250 µg/mL (Escherichia coli [10]): 16 to 26 mm; MIC (Pseudomonas aeruginosa [11]): 50 to 100 µg/mL (≈ 155 to 310 µM); zone of inhibition at 250 µg/mL (Candida albicans [12]): 16 to 26 mm
Clc1ccc(-c2nnnn2-c2ccccn2)cc1 | 10 to 24 mm | 10 to 24 mm | 10 to 24 mm | 10 to 24 mm | 10 to 24 mm | 10 to 24 mm | 
O=C(/C=C/c1ccccc1Cl)n1nnnc1-c1ccccc1 |  | 8 to 15 mm | 8 to 15 mm | 8 to 15 mm |  |  | zone of inhibition at 50 µg/mL (Aspergillus niger [17]): 8 to 15 mm
COc1ccc(-c2nnnn2-c2ccccn2)cc1 | 16 to 24 mm | 16 to 24 mm | 16 to 24 mm | 16 to 24 mm | 16 to 24 mm | 16 to 24 mm | 
O=C(/C=C/c1ccc(Br)cc1)n1nnnc1-c1ccccc1 |  | 8 to 15 mm | 8 to 15 mm | 8 to 15 mm |  |  | zone of inhibition at 50 µg/mL (Aspergillus niger [17]): 8 to 15 mm
Cc1ccc(/C=C/C(=O)n2nnnc2-c2ccccc2)cc1 |  | 8 to 15 mm | 8 to 15 mm | 8 to 15 mm |  |  | zone of inhibition at 50 µg/mL (Aspergillus niger [17]): 8 to 15 mm
O=C(/C=C/c1ccc([N+](=O)[O-])cc1)n1nnnc1-c1ccccc1 |  | 8 to 15 mm | 8 to 15 mm | 8 to 15 mm |  |  | zone of inhibition at 50 µg/mL (Aspergillus niger [17]): 8 to 15 mm
Clc1cccc(-c2nnnn2-c2ccccn2)c1Cl | 10 to 24 mm | 10 to 24 mm | 10 to 24 mm | 10 to 24 mm | 10 to 24 mm | 10 to 24 mm | 
c1ccc(-c2nnnn2-c2nc3ccccc3s2)cc1 |  |  |  |  |  |  | MIC (Bacillus cereus [1]): 50 to 100 µg/mL (≈ 179 to 358 µM); MIC (Staphylococcus aureus [2]): 50 to 100 µg/mL (≈ 179 to 358 µM); MIC (Candida albicans [3]): 50 to 100 µg/mL (≈ 179 to 358 µM); MIC (Aspergillus niger [4]): 50 to 100 µg/mL (≈ 179 to 358 µM); MIC (Escherichia coli [5]): 50 to 100 µg/mL (≈ 179 to 358 µM); zone of inhibition at 250 µg/mL (Aspergillus niger [6]): 16 to 26 mm; zone of inhibition at 250 µg/mL (Bacillus cereus [7]): 16 to 26 mm; zone of inhibition at 250 µg/mL (Staphylococcus aureus [8]): 16 to 26 mm; zone of inhibition at 250 µg/mL (Pseudomonas aeruginosa [9]): 16 to 26 mm; zone of inhibition at 250 µg/mL (Escherichia coli [10]): 16 to 26 mm; MIC (Pseudomonas aeruginosa [11]): 50 to 100 µg/mL (≈ 179 to 358 µM); zone of inhibition at 250 µg/mL (Candida albicans [12]): 16 to 26 mm
Brc1cccc(-c2nnnn2-c2ccccn2)c1 | 10 to 24 mm | 10 to 24 mm | 10 to 24 mm | 10 to 24 mm | 10 to 24 mm | 10 to 24 mm | 
Clc1ccc(-n2nnnc2-c2cccnc2)cc1 | 10 to 22 mm | 10 to 22 mm | 10 to 22 mm | 10 to 22 mm | 10 to 22 mm | 10 to 22 mm | 
Brc1ccc(-n2nnnc2-c2cccnc2)cc1 | 10 to 22 mm | 10 to 22 mm | 10 to 22 mm | 10 to 22 mm | 10 to 22 mm | 10 to 22 mm | 
Clc1cccc(-n2nnnc2-c2cccnc2)c1Cl | 10 to 22 mm | 10 to 22 mm | 10 to 22 mm | 10 to 22 mm | 10 to 22 mm | 10 to 22 mm | 
O=[N+]([O-])c1ccccc1-n1nnnc1-c1cccnc1 | 10 to 22 mm | 10 to 22 mm | 10 to 22 mm | 10 to 22 mm | 10 to 22 mm | 10 to 22 mm | 
O=[N+]([O-])c1cc(-c2nnnn2-c2ccccn2)cc([N+](=O)[O-])c1 | 10 to 24 mm | 10 to 24 mm | 10 to 24 mm | 10 to 24 mm | 10 to 24 mm | 10 to 24 mm | 
O=C(/C=C/c1ccc(Cl)cc1)n1nnnc1-c1ccccc1 |  | 8 to 15 mm | 8 to 15 mm | 8 to 15 mm |  |  | zone of inhibition at 50 µg/mL (Aspergillus niger [17]): 8 to 15 mm
Oc1ccc(-c2nnnn2-c2nc3ccccc3s2)cc1 |  |  |  |  |  |  | MIC (Bacillus cereus [1]): 50 to 100 µg/mL (≈ 169 to 339 µM); MIC (Staphylococcus aureus [2]): 50 to 100 µg/mL (≈ 169 to 339 µM); MIC (Candida albicans [3]): 50 to 100 µg/mL (≈ 169 to 339 µM); MIC (Aspergillus niger [4]): 50 to 100 µg/mL (≈ 169 to 339 µM); MIC (Escherichia coli [5]): 50 to 100 µg/mL (≈ 169 to 339 µM); zone of inhibition at 250 µg/mL (Aspergillus niger [6]): 16 to 26 mm; zone of inhibition at 250 µg/mL (Bacillus cereus [7]): 16 to 26 mm; zone of inhibition at 250 µg/mL (Staphylococcus aureus [8]): 16 to 26 mm; zone of inhibition at 250 µg/mL (Pseudomonas aeruginosa [9]): 16 to 26 mm; zone of inhibition at 250 µg/mL (Escherichia coli [10]): 16 to 26 mm; MIC (Pseudomonas aeruginosa [11]): 50 to 100 µg/mL (≈ 169 to 339 µM); zone of inhibition at 250 µg/mL (Candida albicans [12]): 16 to 26 mm
